What was measured:
JAK1 = JAK1 (Homo sapiens (Human), UniProt P23458); test: LanthaScreen JAK biochemical assay, JAK1; conditions: C-1 vs Example 1, C-2 vs 7, C-3 vs 13, C-4 vs 6
[1] = tested on: IL-13 induced pSTAT6 induction in lung tissue; test: Murine model of IL-13 induced pSTAT6 induction in lung tissue; type: in vivo, mouse; conditions: for lung concentration smaller than that of the corresponding compound of the invention by a factor of: mouse lung in pharmacodynamic assay, C-1 vs Example 1, C-2 vs 7, C-3 vs 13, C-4 vs 6; for pSTAT6 inhibition in the pharmacodynamic assay: mouse lung, Assay 5 conditions
Experimental: Il-13 is an important cytokine underlying the pathophysiology of asthma (Kudlacz et al. Eur. J Pharmacol, 2008, 582, 154-161). IL-13 binds to cell surface receptors activating members of the Janus family of kinases (JAK) which then phosphorylate STAT6 and subsequently activates further transcription pathways. In the described model, a dose of IL-13 was delivered locally into the lungs of mice to induce the phosphorylation of STAT6 (pSTAT6) which is then measured as the endpoint.
Adult balb/c mice from Harlan were used in the assay. On the day of study, animals were lightly anesthetized with isoflurane and administered either vehicle or test compound (0.5 mg/mL, 50 μL total volume over several breaths) via oral aspiration. Animals were placed in lateral recumbency post dose and monitored for full recovery from anesthesia before being returned to their home cage. Four hours later, animals were once again briefly anesthetized and challenged with either vehicle or IL-13 (0.03 μg total dose delivered, 50 μL total volume) via oral aspiration before being monitored for recovery from anesthesia and returned to their home cage. One hour after vehicle or IL-13 administration, lungs were collected for both pSTAT6 detection using an anti-pSTAT6 ELISA (rabbit mAb capture/coating antibody; mouse mAb detection/report antibody: anti-pSTAT6-pY641; secondary antibody: anti-mouse IgG-HRP) and analyzed for total drug concentration as described above in Assay 4.
Selected compounds of the invention were tested in the assay. Activity in the model is evidenced by a decrease in the level of pSTAT6 present in the lungs of treated animals at 5 hours compared to the vehicle treated, IL-13 challenged control animals. The difference between the control animals which were vehicle-treated, IL-13 challenged and the control animals which were vehicle-treated, vehicle challenged dictated the 0% and 100% inhibitory effect, respectively, in any given experiment.

[2] = Dynamic moisture sorption assessment; type: physicochemical; conditions: humidity range of 5% to 90% relative humidity, about 25° C.
Experimental: Dynamic moisture sorption (DMS) measurement was performed using a VTI atmospheric microbalance, SGA-100 system (VTI Corp., Hialeah, Fla. 33016). A weighed sample was used and the humidity was lowest possible value (close to 0% RH) at the start of the analysis. The DMS analysis consisted of an initial drying step (˜0% RH) for 120 minutes, followed by two cycles of sorption and desorption with a scan rate of 5% RH/step over the humidity range of 5% RH to 90% RH. The DMS run was performed isothermally at 25° C.

Sequence of JAK1 (P23458 whole entry): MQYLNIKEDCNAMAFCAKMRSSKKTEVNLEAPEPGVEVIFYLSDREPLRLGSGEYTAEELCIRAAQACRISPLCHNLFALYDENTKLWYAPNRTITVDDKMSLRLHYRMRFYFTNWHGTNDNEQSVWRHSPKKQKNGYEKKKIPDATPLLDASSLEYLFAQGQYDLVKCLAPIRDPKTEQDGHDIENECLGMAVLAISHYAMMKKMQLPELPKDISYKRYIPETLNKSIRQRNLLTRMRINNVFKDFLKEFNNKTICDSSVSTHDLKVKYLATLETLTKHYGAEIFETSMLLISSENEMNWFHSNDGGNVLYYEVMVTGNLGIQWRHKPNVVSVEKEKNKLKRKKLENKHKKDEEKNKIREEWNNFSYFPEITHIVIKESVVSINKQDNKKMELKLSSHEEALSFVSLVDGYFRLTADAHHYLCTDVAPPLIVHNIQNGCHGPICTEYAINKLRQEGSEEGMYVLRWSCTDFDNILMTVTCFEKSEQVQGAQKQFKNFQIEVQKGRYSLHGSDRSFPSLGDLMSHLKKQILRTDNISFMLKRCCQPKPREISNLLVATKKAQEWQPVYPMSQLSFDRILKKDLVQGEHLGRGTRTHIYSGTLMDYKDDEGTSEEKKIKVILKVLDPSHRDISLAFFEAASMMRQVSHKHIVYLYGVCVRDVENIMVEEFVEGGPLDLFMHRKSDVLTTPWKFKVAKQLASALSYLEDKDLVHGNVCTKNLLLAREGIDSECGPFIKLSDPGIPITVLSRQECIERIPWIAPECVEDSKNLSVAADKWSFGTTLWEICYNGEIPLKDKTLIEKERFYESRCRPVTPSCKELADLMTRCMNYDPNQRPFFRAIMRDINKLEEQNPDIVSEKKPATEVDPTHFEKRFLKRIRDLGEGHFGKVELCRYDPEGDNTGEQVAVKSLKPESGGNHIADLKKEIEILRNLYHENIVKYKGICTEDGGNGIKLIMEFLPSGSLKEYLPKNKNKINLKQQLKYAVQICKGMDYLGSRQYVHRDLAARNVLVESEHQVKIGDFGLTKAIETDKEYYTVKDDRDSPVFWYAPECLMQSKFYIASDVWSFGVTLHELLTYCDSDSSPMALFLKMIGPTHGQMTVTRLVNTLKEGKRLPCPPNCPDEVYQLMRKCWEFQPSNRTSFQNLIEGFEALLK

## CCc1cc(O)c(F)cc1-c1ccc2c(-c3nc4c([nH]3)CCN(C3CCC(C)CC3)C4)n[nH]c2c1 (centres unmarked) [Example C-4]
JAK1
  fold less potent than the corresponding compound of the invention in the enzyme assay: 2.5 fold
[1]
  lung concentration smaller than that of the corresponding compound of the invention by a factor of: 23

## CCc1cc(O)c(F)cc1-c1ccc2c(-c3nc4c([nH]3)CCN(CCNC3(C#N)CC3)C4)n[nH]c2c1 [Example 3-1]
[1]
  pSTAT6 inhibition in the pharmacodynamic assay: exceptions

## CCc1cc(O)c(F)cc1-c1ccc2c(-c3nc4c([nH]3)CCN(CC3CCCOC3)C4)n[nH]c2c1 (centres unmarked) [Example C-3]
JAK1
  fold less potent than the corresponding compound of the invention in the enzyme assay: 6 fold
[1]
  lung concentration smaller than that of the corresponding compound of the invention by a factor of: 13

## CCc1cc(O)c(F)cc1-c1ccc2c(-c3nc4c([nH]3)CCN(C3CCN(C)CC3)C4)n[nH]c2c1 [crystalline hydrate, 5-ethyl-2-fluoro-4-(3-(5-(1-methylpiperidin-4-yl)-4,5,6,7-tetrahydro-1H-imidazo[4,5-c]pyridin-2-yl)-1H-indazol-6-yl)phenol]
[2]
  weight gain (weight change) on moisture sorption: less than 0.12%

## CCc1cc(O)c(F)cc1-c1ccc2c(-c3nc4c([nH]3)CCN(C3CN(C5CCS(=O)(=O)C5)C3)C4)n[nH]c2c1 (centres unmarked) [Example 1-15]
[1]
  pSTAT6 inhibition in the pharmacodynamic assay: exceptions

## CCc1cc(O)c(F)cc1-c1ccc2c(-c3nc4c([nH]3)CCN(C3CC(C)C3)C4)n[nH]c2c1 (centres unmarked) [Example C-1, 5-Ethyl-2-fluoro-4-(3-(5-(3-methylcyclobutyl)-4,5,6,7-tetrahydro-1H-imidazo[4,5-c]pyridin-2-yl)-1H-indazol-6-yl)phenol]
JAK1
  fold less potent than the corresponding compound of the invention in the enzyme assay: 2 fold
[1]
  lung concentration smaller than that of the corresponding compound of the invention by a factor of: 36

## CCc1cc(O)c(F)cc1-c1ccc2c(-c3nc4c([nH]3)CCN(CCC(C)C)C4)n[nH]c2c1 [Example C-2]
JAK1
  fold less potent than the corresponding compound of the invention in the enzyme assay: 3 fold
[1]
  lung concentration smaller than that of the corresponding compound of the invention by a factor of: 52

From patent US11718616B2, “JAK kinase inhibitor compounds for treatment of respiratory disease” (THERAVANCE BIOPHARMA R&D IP, LLC, priority 2015, dated 2023)
